Three compounds from patent publication US20220273678A1 (priority 2020, published 2022) can be followed below.

One may read the IC50 as the concentration that inhibits the measured activity by half. A higher IC50 goes with a need for much substance.

Test [1] deals with SARS-CoV-2 Beta variant. Type of test: cell-based. The following applies: for antiviral activity against Beta variant, viral titer assay: hACE2 HEK293T, 1000 nM dTPP, CoQ10 1000-2000 nM.
Test [2] concerns SARS-CoV-2 Delta variant. Format: cell-based. The following applies: 1000 nM Mito-MES; 1000 nM dTPP; CoQ10 1000-2000 nM.
Test [3] concerns SARS-CoV-2 Delta variant. Put plainly: microbe, parasite or virus in culture. Format: cell-based. The settings on record: Severe acute respiratory syndrome coronavirus 2, Calu-3.
The subject of test [4] is SARS-CoV-2 Delta variant. Details: species or system mice. The following applies: mouse, in vivo.
For test [5], the system named is SARS-CoV-2 Beta. Description: microbe, parasite or virus in culture. Type of test: cell-based. The settings on record: Severe acute respiratory syndrome coronavirus 2, Calu-3.
For test [6], the system named is SARS-CoV-2 Beta variant. The arrangement: species or system mice. The settings on record: mouse, in vivo.

Consider `COC1=C(OC)C(=O)C(C/C=C(\C)CC/C=C(\C)CC/C=C(\C)CC/C=C(\C)CC/C=C(\C)CC/C=C(\C)CC/C=C(\C)CC/C=C(\C)CC/C=C(\C)CCC=C(C)C)=C(C)C1=O` [CoQ10, Coenzyme Q10], for which the “antiviral activity against Beta variant, viral titer assay” value in test [1] was “only higher concentrations (1000-2000 nM)”. The “antiviral activity against Delta variant in ALI lung cultures” value (from here on “antiviral activity against Delta variant”) in test [2] is “only higher concentrations (1000-2000 nM)”.

For `CCCCCCCCCC[P+](c1ccccc1)(c1ccccc1)c1ccccc1.[Br-]` [dTPP], in test [1], the “time-of-addition study, intracellular N protein” value is “reduced SARS-CoV-2 entry and had less impact on SARS-CoV-2 cytoplasmic replication”; the “antiviral activity against Beta variant, viral titer assay” value was “potent antiviral activity”. In test [2], the “antiviral activity against Delta variant” value is on record as “potent antiviral activity”.

On to `COC1=C(OC)C(=O)C(CCCCCCCCCC[P+](c2ccccc2)(c2ccccc2)c2ccccc2)=C(C)C1=O.CS(=O)(=O)[O-]` [Mito-MES, 10-(4,5-dimethoxy-2-methyl-3,6-dioxo-1,4-cyclohexadienyl) decyl triphenylphosphonium methanesulfonate], for which, in test [3], the midpoint of inhibition, the IC50, lay at 41 nM. Moreover, the “SARS-CoV-2 N protein in lungs, ELISA” value in test [4] was “further confirmed by ELISA”. The “reduction of viral titer relative to vehicle” value in test [4] (po, 20 mg/kg) was around 3 log units. For the same compound, the “time-of-addition study, intracellular N protein” value in test [1] is recorded as “also even when added 4 hours after infection”. Besides, the IC50 in test [5] was 34 nM. For the same compound, the “antiviral activity against Delta variant” value in test [2] was “inhibited SARS-CoV-2 Delta variants in ALI lung cultures”. In test [6], the “IL-lb, IL-6, TNFa in the lung” value was “reduction in IL-lb, IL-6, TNFa”; the “cleaved caspase 3 in lung, immunofluorescence” value is reported as “inhibited SARS-CoV-2-associated increase in cleaved caspase 3”; the “frequency of NK cells in lungs” value is on record as “reduced frequency of NK cells”; the “histopathology: lung inflammation and tissue damage” value was “reduction of lung inflammation and tissue damage”.
